Experimental findings from patent publication US10081624B2, “Heterocyclic compound” (Takeda Pharmaceutical Company Limited, priority 2014, dated 2018) are described below.

One experiment deals with T1, HDAC1 enzyme (Homo sapiens, UniProt Q13547).
T1 construct: prepared by transducing full length HDAC1 and HDAC6 genes into Sf-9 insect cells; GST; purchased SignalChem; host or cells: Sf-9 insect cells
Nature of the experiment: HDAC1 enzyme inhibitory assay (HDAC-Glo I/II Assay kit). Format: biochemical. The note with it: 1 μM test compound; read-out: HDAC1 inhibitory rate (%) (1 μM). The method, boiled down:
(§1)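 Full-length GST-purified HDAC1 or HDAC6 (Sf-9 expressed) preincubated 60 min at room temperature with compound in Tris-HCl pH 7.5 buffer with glutathione and Tween-20. HDAC-Glo substrate-developer added, 20 min at room temperature, then luminescence read; inhibition relative to no-enzyme wells as 100%.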

The target in a further experiment is T2, HDAC6 enzyme (Homo sapiens, UniProt Q9UBN7).
T2 construct: prepared by transducing full length HDAC1 and HDAC6 genes into Sf-9 insect cells; GST; purchased SignalChem; host or cells: Sf-9 insect cells
T2 sequence (Q9UBN7 1-1215): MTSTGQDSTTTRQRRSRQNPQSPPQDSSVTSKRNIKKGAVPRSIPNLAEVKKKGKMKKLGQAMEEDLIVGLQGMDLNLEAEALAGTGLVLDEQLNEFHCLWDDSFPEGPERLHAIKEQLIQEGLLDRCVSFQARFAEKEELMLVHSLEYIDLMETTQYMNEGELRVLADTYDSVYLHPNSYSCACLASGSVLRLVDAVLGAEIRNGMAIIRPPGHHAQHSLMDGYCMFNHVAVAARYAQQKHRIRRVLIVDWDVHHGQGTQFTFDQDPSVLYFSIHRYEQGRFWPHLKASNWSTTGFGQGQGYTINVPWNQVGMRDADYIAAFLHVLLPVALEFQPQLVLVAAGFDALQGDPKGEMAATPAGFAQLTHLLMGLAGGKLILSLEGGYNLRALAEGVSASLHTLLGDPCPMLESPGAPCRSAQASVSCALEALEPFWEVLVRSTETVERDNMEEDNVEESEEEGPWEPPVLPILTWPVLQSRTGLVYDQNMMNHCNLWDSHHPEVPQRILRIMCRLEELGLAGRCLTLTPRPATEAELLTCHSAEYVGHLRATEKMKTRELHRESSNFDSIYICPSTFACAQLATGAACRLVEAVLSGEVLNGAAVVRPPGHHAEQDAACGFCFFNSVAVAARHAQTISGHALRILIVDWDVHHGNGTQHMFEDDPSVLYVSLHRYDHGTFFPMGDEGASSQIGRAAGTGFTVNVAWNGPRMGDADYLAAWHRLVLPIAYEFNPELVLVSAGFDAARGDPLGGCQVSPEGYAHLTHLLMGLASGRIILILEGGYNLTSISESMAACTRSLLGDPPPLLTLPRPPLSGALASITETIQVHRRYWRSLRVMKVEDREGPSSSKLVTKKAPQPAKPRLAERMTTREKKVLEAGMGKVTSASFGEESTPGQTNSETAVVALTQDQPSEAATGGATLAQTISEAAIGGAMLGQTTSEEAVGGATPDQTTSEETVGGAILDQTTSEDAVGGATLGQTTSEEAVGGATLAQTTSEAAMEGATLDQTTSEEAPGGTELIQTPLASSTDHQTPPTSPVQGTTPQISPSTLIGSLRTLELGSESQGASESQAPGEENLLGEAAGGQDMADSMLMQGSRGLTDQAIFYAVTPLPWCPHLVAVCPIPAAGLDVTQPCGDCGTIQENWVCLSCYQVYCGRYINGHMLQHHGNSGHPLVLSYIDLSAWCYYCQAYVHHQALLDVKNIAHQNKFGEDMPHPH
Briefly: HDAC6 enzyme inhibitory assay (HDAC-Glo I/II Assay kit). Format: biochemical. The conditions noted are these: 1 μM test compound; read-out: HDAC6 inhibitory rate (%) (1 μM). Summed up:
as §1

T1 sequence (Q13547 whole entry): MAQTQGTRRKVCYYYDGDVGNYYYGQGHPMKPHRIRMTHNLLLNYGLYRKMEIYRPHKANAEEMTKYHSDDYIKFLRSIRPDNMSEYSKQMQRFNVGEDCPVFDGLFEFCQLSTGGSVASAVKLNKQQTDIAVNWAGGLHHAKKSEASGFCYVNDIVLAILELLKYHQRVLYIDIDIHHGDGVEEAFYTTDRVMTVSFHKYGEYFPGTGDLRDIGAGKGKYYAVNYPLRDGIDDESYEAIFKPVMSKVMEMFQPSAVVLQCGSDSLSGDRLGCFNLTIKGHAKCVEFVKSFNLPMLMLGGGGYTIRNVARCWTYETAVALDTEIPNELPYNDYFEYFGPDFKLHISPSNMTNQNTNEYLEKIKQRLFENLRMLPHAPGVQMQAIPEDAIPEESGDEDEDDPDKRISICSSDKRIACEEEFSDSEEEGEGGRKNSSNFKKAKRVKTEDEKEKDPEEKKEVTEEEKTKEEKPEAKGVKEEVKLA

In the case of `O=C(NC[C@@H]1COCCN1C(=O)c1ccno1)c1ccc(-c2noc(C(F)(F)F)n2)cc1` [Example 133, N-(((3R)-4-(1,2-oxazol-5-ylcarbonyl)morpholin-3-yl)methyl)-4-(5-(trifluoromethyl)-1,2,4-oxadiazol-3-yl)benzamide], the inhibition at 1 µM is 6% at HDAC1 enzyme and 96% at HDAC6 enzyme.
Take `Cc1cc(C(=O)N2CCOC[C@H]2CNC(=O)c2ccc(-c3noc(C(F)(F)F)n3)cc2)on1` [Example 134, N-(((3R)-4-((3-methyl-1,2-oxazol-5-yl)carbonyl)morpholin-3-yl)methyl)-4-(5-(trifluoromethyl)-1,2,4-oxadiazol-3-yl)benzamide]: the figures for the inhibition at 1 µM on HDAC1 enzyme and at HDAC6 enzyme were 11% and 97%, respectively.
Consider `O=C(NC[C@@H]1COCCN1C(=O)c1csnn1)c1ccc(-c2noc(C(F)(F)F)n2)cc1` [Example 142, N-(((3R)-4-(1,2,3-thiadiazol-4-ylcarbonyl)morpholin-3-yl)methyl)-4-(5-(trifluoromethyl)-1,2,4-oxadiazol-3-yl)benzamide], for which the inhibition at 1 µM on HDAC1 enzyme was found to be 12%; at HDAC6 enzyme, 96%.
Taken in the same sequence, the figures for `Cc1ccc(C(=O)N2CCOC[C@H]2CNC(=O)c2ccc(-c3noc(C(F)(F)F)n3)cc2)s1` [Example 144, N-(((3R)-4-((5-methyl-2-thienyl)carbonyl)morpholin-3-yl)methyl)-4-(5-(trifluoromethyl)-1,2,4-oxadiazol-3-yl)benzamide] were 14% and 96%.
Taken in the same sequence, the figures for `Cc1csc(C(=O)N2CCOC[C@H]2CNC(=O)c2ccc(-c3noc(C(F)(F)F)n3)cc2)c1` [Example 145, N-(((3R)-4-((4-methyl-2-thienyl)carbonyl)morpholin-3-yl)methyl)-4-(5-(trifluoromethyl)-1,2,4-oxadiazol-3-yl)benzamide] were 15% and 97%.
On the same counts, the results for `O=C(NC[C@@H]1COCCN1C(=O)C1CC1)c1ccc(-c2noc(C(F)(F)F)n2)cc1` [Example 147, N-(((3R)-4-(cyclopropylcarbonyl)morpholin-3-yl)methyl)-4-(5-(trifluoromethyl)-1,2,4-oxadiazol-3-yl)benzamide] are 7% and 94%.
As for `O=C(NC[C@@H]1COCCN1C(=O)CC1CC1)c1ccc(-c2noc(C(F)(F)F)n2)cc1` [Example 148, N-(((3R)-4-(cyclopropylacetyl)morpholin-3-yl)methyl)-4-(5-(trifluoromethyl)-1,2,4-oxadiazol-3-yl)benzamide], the inhibition at 1 µM at HDAC1 enzyme turned out to be 10%; on HDAC6 enzyme, 95%.
Taken in the same sequence, the figures for `O=C(NC[C@@H]1COCCN1C(=O)C1CCCC1)c1ccc(-c2noc(C(F)(F)F)n2)cc1` [Example 149, N-(((3R)-4-(cyclopentylcarbonyl)morpholin-3-yl)methyl)-4-(5-(trifluoromethyl)-1,2,4-oxadiazol-3-yl)benzamide] were 12% and 96%.
On the same counts, the results for `O=C(NC[C@@H]1COCCN1C(=O)C1CCCCC1)c1ccc(-c2noc(C(F)(F)F)n2)cc1` [Example 152, N-(((3R)-4-(cyclohexylcarbonyl)morpholin-3-yl)methyl)-4-(5-(trifluoromethyl)-1,2,4-oxadiazol-3-yl)benzamide] are 20% and 99%.
Regarding `O=C(NC[C@@H]1COCCN1C(=O)C1CCOCC1)c1ccc(-c2noc(C(F)(F)F)n2)cc1` [Example 153, N-(((3R)-4-(tetrahydro-2H-pyran-4-ylcarbonyl)morpholin-3-yl)methyl)-4-(5-(trifluoromethyl)-1,2,4-oxadiazol-3-yl)benzamide], the results for the inhibition at 1 µM at HDAC1 enzyme and at HDAC6 enzyme were 3% and 92%, respectively.
On the same counts, the results for `O=C(NC[C@@H]1COCCN1C(=O)c1cc(F)cc(F)c1)c1ccc(-c2noc(C(F)(F)F)n2)cc1` [Example 155, N-(((3R)-4-(3,5-difluorobenzoyl)morpholin-3-yl)methyl)-4-(5-(trifluoromethyl)-1,2,4-oxadiazol-3-yl)benzamide] are 15% and 99%.
Taken in the same sequence, the figures for `Cn1nc2ccccc2c1C(=O)N1CCOC[C@H]1CNC(=O)c1ccc(-c2noc(C(F)(F)F)n2)cc1` [Example 157, N-(((3R)-4-((2-methyl-2H-indazol-3-yl)carbonyl)morpholin-3-yl)methyl)-4-(5-(trifluoromethyl)-1,2,4-oxadiazol-3-yl)benzamide] were 31% and 92%.
On the same counts, the results for `O=C(NC[C@@H]1COCCN1C(=O)N1CCCCC1)c1ccc(-c2noc(C(F)(F)F)n2)cc1` [Example 158, N-(((3R)-4-(piperidin-1-ylcarbonyl)morpholin-3-yl)methyl)-4-(5-(trifluoromethyl)-1,2,4-oxadiazol-3-yl)benzamide] are 12% and 97%.
As for `CN(CC1COCCN1C(=O)c1ccccc1)C(=O)c1ccc(-c2noc(C(F)(F)F)n2)cc1` (stereo not drawn) [Example 159, N-((4-benzoylmorpholin-3-yl)methyl)-N-methyl-4-(5-(trifluoromethyl)-1,2,4-oxadiazol-3-yl)benzamide], the results for the inhibition at 1 µM on HDAC1 enzyme and at HDAC6 enzyme were 11% and 42%, respectively.
On the same counts, the results for `O=C(C[C@H]1COCCN1C(=O)c1ccccc1)Nc1ccc(-c2noc(C(F)(F)F)n2)cc1` [Example 160, 2-((3S)-4-benzoylmorpholin-3-yl)-N-(4-(5-(trifluoromethyl)-1,2,4-oxadiazol-3-yl)phenyl)acetamide] are 15% and 98%.
On the same counts, the results for `CN(C(=O)C[C@H]1COCCN1C(=O)c1ccccc1)c1ccc(-c2noc(C(F)(F)F)n2)cc1` [Example 161, 2-((3S)-4-benzoylmorpholin-3-yl)-N-methyl-N-(4-(5-(trifluoromethyl)-1,2,4-oxadiazol-3-yl)phenyl)acetamide] are 6% and 48%.
Taken in the same sequence, the figures for `O=C(NCC1CCCN1C(=O)c1ccccc1)c1ccc(-c2noc(C(F)(F)F)n2)cc1` (stereo not drawn) [Example 162, N-((1-benzoylpyrrolidin-2-yl)methyl)-4-(5-(trifluoromethyl)-1,2,4-oxadiazol-3-yl)benzamide] were 16% and 97%.
As for `O=C(NCC1CCCCN1C(=O)c1ccccc1)c1ccc(-c2noc(C(F)(F)F)n2)cc1` (stereo not drawn) [Example 163, N-((1-benzoylpiperidin-2-yl)methyl)-4-(5-(trifluoromethyl)-1,2,4-oxadiazol-3-yl)benzamide], the inhibition at 1 µM amounted to 25% on HDAC1 enzyme and 97% at HDAC6 enzyme.
On the same counts, the results for `Cn1nccc1C(=O)N1CCCC[C@@H]1CNC(=O)c1ccc(-c2noc(C(F)(F)F)n2)cc1` [Example 164, N-(((2R)-1-((1-methyl-1H-pyrazol-5-yl)carbonyl)piperidin-2-yl)methyl)-4-(5-(trifluoromethyl)-1,2,4-oxadiazol-3-yl)benzamide] are 17% and 98%.
On to `O=C(NCC1CN(C(=O)c2ccccc2)CCN1C(=O)c1ccccc1)c1ccc(-c2noc(C(F)(F)F)n2)cc1` (stereo not drawn) [Example 165, N-((1,4-dibenzoylpiperazin-2-yl)methyl)-4-(5-(trifluoromethyl)-1,2,4-oxadiazol-3-yl)benzamide], for which the inhibition at 1 µM at HDAC1 enzyme stood at 17%; on HDAC6 enzyme, 99%.
Turning to `O=C(NCC1Cc2ccccc2N1C(=O)c1ccccc1)c1ccc(-c2noc(C(F)(F)F)n2)cc1` (stereo not drawn) [Example 167, N-((1-benzoyl-2,3-dihydro-1H-indol-2-yl)methyl)-4-(5-(trifluoromethyl)-1,2,4-oxadiazol-3-yl)benzamide], the values for the inhibition at 1 µM at HDAC1 enzyme and at HDAC6 enzyme were 15% and 93%, respectively.
